# “And” between values parts separate entries of the source, which are not always exact repeats. Equal entries are not always repeated.
# Tests used:
# Format in all cases: in vivo
# Botrytis cinerea [1] = assay: Treatment of wounded apples inoculated with Botrytis cinerea (dip, mould growth); conditions: 250 ppm natamycin, 20° C.
# Protocol: Twelf fresh, organic apples were used per treatment. Each apple was wounded once using a cork borer according to the method described by de Lapeyre de Bellaire and Dubois (1987). Subsequently, each wound was inoculated with 10 μl of a Botrytis cinerea suspension containing 1×10^5 of spores/ml. […] In addition, the antifungal compositions comprised 3.1% (w/w) beeswax, 0.76% (w/w) glycerol, 0.66% (w/w) polyoxyethylene sorbitan monostearate (Tween 60), 0.03% (w/w) methylhydroxyethylcellulose (MHEC), 0.02% (w/w) xanthan gum, 0.02% (w/w) anti-foaming agent, 0.15% (w/w) citric acid and 0.01% (w/w) potassium sorbate. The pH of the compositions was 4. […] The treated apples were incubated in a closed box in the dark at 20° C.
# During incubation, the treated apples were assessed on mould growth according to the two methods described in Example 8.
# Penicillium italicum = assay: Treatment of wounded mandarins inoculated with Penicillium italicum (dip, mould growth); conditions: 500 ppm natamycin, 2000 ppm procymidone or both, 20° C.
# Protocol: Ten fresh, organic mandarins were used per treatment. The peel of each mandarin was wounded once using a cork borer according to the method described by de Lapeyre de Bellaire and Dubois (1987). Subsequently, each wound was inoculated with 10 μl of a Penicillium italicum suspension containing 1×10^4 of spores/ml. […] In addition, the antifungal compositions comprised 3.1% (w/w) beeswax, 0.76% (w/w) glycerol, 0.66% (w/w) polyoxyethylene sorbitan monostearate (Tween 60), 0.03% (w/w) methylhydroxyethylcellulose (MHEC), 0.02% (w/w) xanthan gum, 0.02% (w/w) anti-foaming agent, 0.15% (w/w) citric acid and 0.01% (w/w) potassium sorbate. The pH of the compositions was 4. A composition without natamycin or procymidone was used as control.
# The treated mandarins were incubated in a closed box in the dark at 20° C. and assessed on mould growth after 6, 8, 10, 13, 15 and 18 days of incubation. The antifungal activity (in %) of the individual and combined active ingredients was determined by calculating the reduction in mould growth observed on the mandarins treated with the antifungal composition in comparison to the mould growth on the mandarins treated with the control composition according to the Colby method (Colby, 1967) described in Example 3.
# Botrytis cinerea [2] = assay: Treatment of wounded strawberries inoculated with Botrytis cinerea (dip, mould growth); conditions: 20° C.
# Protocol: Ten fresh, organic strawberries were used per treatment. Each strawberry was wounded with a 0.5 mm long cut and each wound was inoculated with 10 μl of a Botrytis cinerea suspension containing 1×10^5 of spores/ml. […] The antifungal composition also comprised 3.1% (w/w) beeswax, 0.76% (w/w) glycerol, 0.66% (w/w) polyoxyethylene sorbitan monostearate (Tween 60), 0.03% (w/w) methylhydroxyethyl-cellulose (MHEC), 0.02% (w/w) xanthan gum, 0.02% (w/w) anti-foaming agent, 0.15% (w/w) citric acid and 0.01% (w/w) potassium sorbate. The pH of the compositions was 4. A composition without natamycin or procymidone was used as control. The treated strawberries were incubated in a closed box in the dark at 20° C. for 13 days.
# During incubation, mould growth on the strawberries was assessed in a twofold manner: (i) the number of moulded strawberries per total of 10 strawberries was counted; and (ii) the antifungal activity (in %) of the individual and combined active ingredients was determined by calculating the reduction in mould growth observed on the strawberries treated with the antifungal composition in comparison to the mould growth on the strawberries treated with the control composition. The expected antifungal activity (E in %) of the combined antifungal composition comprising both active ingredients was calculated according to the Colby equation (Colby, 1967): […]
# wherein X and Y are the observed antifungal activities (in %) of the individual active ingredients X and Y, respectively. If the observed antifungal activity (O in %) of the combination exceeds the expected antifungal activity (E in %) of the combination and the synergy factor O/E is thus >1.0, the combined application of the active ingredients leads to a synergistic antifungal effect.
# The treated strawberries were assessed on mould growth after 4, 5 and 7 days of incubation according to the two methods described in Example 3.
# The treated strawberries were incubated for 9 days and, as of day 5, assessed on mould growth daily. The antifungal activity (in %) of the individual and combined active ingredients was determined according to the method described in Example 3.
# During incubation, the treated strawberries were assessed on mould growth according to the two methods described in Example 3.
# [3] = 500 ppm procymidone or both, day 13
# [4] = 250 ppm natamycin, 250 ppm procymidone or both, day 4
# [5] = 250 ppm natamycin, 250 ppm procymidone or both, day 5
# [6] = 250 ppm natamycin, 250 ppm procymidone or both, day 6
# [7] = 250 ppm natamycin, 250 ppm procymidone or both, day 7
# [8] = 250 ppm natamycin, 250 ppm procymidone or both, day 8
# [9] = 250 ppm natamycin, 250 ppm procymidone or both, day 9
# [10] = 500 ppm natamycin, 1000 ppm procymidone or both, day 5
# [11] = 500 ppm natamycin, 1000 ppm procymidone or both, day 7
# [12] = 500 ppm natamycin, 2000 ppm procymidone or both, day 5
# [13] = 500 ppm natamycin, 2000 ppm procymidone or both, day 6
# [14] = 500 ppm natamycin, 2000 ppm procymidone or both, day 7
# [15] = 500 ppm natamycin, 2000 ppm procymidone or both, day 12
compound,measurement,setting,value
"C[C@@H]1C/C=C/C=C/C=C/C=C/[C@H](O[C@@H]2O[C@H](C)[C@@H](O)[C@H](N)[C@@H]2O)C[C@@H]2O[C@](O)(C[C@@H](O)C[C@H]3O[C@@H]3/C=C/C(=O)O1)C[C@H](O)[C@H]2C(=O)O [Natamycin, natamycin]",Number of moulded apples/total number of 12 apples,"Botrytis cinerea [1]; 250 ppm procymidone or both, day 6",12/12
same,Number of moulded apples/total number of 12 apples,"Botrytis cinerea [1]; 250 ppm procymidone or both, day 7-11",12/12
same,Number of moulded apples/total number of 12 apples,"Botrytis cinerea [1]; 250 ppm procymidone or both, day 12-13",12/12
same,Observed antifungal activity O (%),"Botrytis cinerea [1]; 250 ppm procymidone or both, day 13",31%
same,Observed antifungal activity O (%),"Botrytis cinerea [1]; 250 ppm procymidone or both, day 14",26%
same,Number of moulded apples/total number of 12 apples,"Botrytis cinerea [1]; 250 ppm procymidone or both, day 14-25",12/12
same,Observed antifungal activity O (%),"Botrytis cinerea [1]; 250 ppm procymidone or both, day 15",23%
same,Observed antifungal activity O (%),"Botrytis cinerea [1]; 250 ppm procymidone or both, day 17",18%
same,Observed antifungal activity O (%),"Botrytis cinerea [1]; 250 ppm procymidone or both, day 18",18%
same,Observed antifungal activity O (%),"Botrytis cinerea [1]; 250 ppm procymidone or both, day 20",16%
same,Observed antifungal activity O (%),"Botrytis cinerea [1]; 250 ppm procymidone or both, day 22",14%
same,Observed antifungal activity O (%),"Botrytis cinerea [1]; 250 ppm procymidone or both, day 25",14%
same,Number of moulded apples/total number of 12 apples,"Botrytis cinerea [1]; 500 ppm procymidone or both, day 4",11 and 11/12
same,Number of moulded apples/total number of 12 apples,"Botrytis cinerea [1]; 500 ppm procymidone or both, day 5-6",12 and 12/12
same,Number of moulded apples/total number of 12 apples,"Botrytis cinerea [1]; 500 ppm procymidone or both, day 7-11",12 and 12/12
same,Number of moulded apples/total number of 12 apples,"Botrytis cinerea [1]; 500 ppm procymidone or both, day 12",12/12
same,Number of moulded apples/total number of 12 apples,Botrytis cinerea [1]; [3],12/12
same,Observed antifungal activity O (%),Botrytis cinerea [1]; [3],31%
same,Observed antifungal activity O (%),"Botrytis cinerea [1]; 500 ppm procymidone or both, day 14",26%
same,Number of moulded apples/total number of 12 apples,"Botrytis cinerea [1]; 500 ppm procymidone or both, day 14-25",12/12
same,Observed antifungal activity O (%),"Botrytis cinerea [1]; 500 ppm procymidone or both, day 15",23%
same,Observed antifungal activity O (%),"Botrytis cinerea [1]; 500 ppm procymidone or both, day 17",18%
same,Observed antifungal activity O (%),"Botrytis cinerea [1]; 500 ppm procymidone or both, day 18",18%
same,Observed antifungal activity O (%),"Botrytis cinerea [1]; 500 ppm procymidone or both, day 20",16%
same,Observed antifungal activity O (%),"Botrytis cinerea [1]; 500 ppm procymidone or both, day 22",14%
same,Observed antifungal activity O (%),"Botrytis cinerea [1]; 500 ppm procymidone or both, day 25",14%
same,Observed antifungal activity O (%),Penicillium italicum; day 6,82%
same,Observed antifungal activity O (%),Penicillium italicum; day 8,73%
same,Observed antifungal activity O (%),Penicillium italicum; day 10,66%
same,Observed antifungal activity O (%),Penicillium italicum; day 13,59%
same,Observed antifungal activity O (%),Penicillium italicum; day 15,55%
same,Observed antifungal activity O (%),Penicillium italicum; day 18,44%
same,Number of moulded strawberries/total number of 10 strawberries,Botrytis cinerea [2]; [4],4 and 4/10
same,Observed antifungal activity O (%),Botrytis cinerea [2]; [4],53%
same,Number of moulded strawberries/total number of 10 strawberries,Botrytis cinerea [2]; [5],7 and 7/10
same,Observed antifungal activity O (%),Botrytis cinerea [2]; [5],34%
same,Number of moulded strawberries/total number of 10 strawberries,Botrytis cinerea [2]; [6],9 and 9/10
same,Observed antifungal activity O (%),Botrytis cinerea [2]; [6],15%
same,Number of moulded strawberries/total number of 10 strawberries,Botrytis cinerea [2]; [7],10 and 10/10
same,Observed antifungal activity O (%),Botrytis cinerea [2]; [7],11%
same,Number of moulded strawberries/total number of 10 strawberries,Botrytis cinerea [2]; [8],10 and 10/10
same,Observed antifungal activity O (%),Botrytis cinerea [2]; [8],10%
same,Number of moulded strawberries/total number of 10 strawberries,Botrytis cinerea [2]; [9],10 and 10/10
same,Observed antifungal activity O (%),Botrytis cinerea [2]; [9],5%
same,Observed antifungal activity O (%),"Botrytis cinerea [2]; 250 ppm natamycin, 250 ppm procymidone or both, day 10",3%
same,Observed antifungal activity O (%),"Botrytis cinerea [2]; 250 ppm natamycin, 250 ppm procymidone or both, day 12",0%
same,Observed antifungal activity O (%),"Botrytis cinerea [2]; 250 ppm natamycin, 500 ppm procymidone or both, day 5",34%
same,Observed antifungal activity O (%),"Botrytis cinerea [2]; 250 ppm natamycin, 500 ppm procymidone or both, day 6",15%
same,Observed antifungal activity O (%),"Botrytis cinerea [2]; 250 ppm natamycin, 500 ppm procymidone or both, day 7",11%
same,Observed antifungal activity O (%),"Botrytis cinerea [2]; 250 ppm natamycin, 500 ppm procymidone or both, day 8",10%
same,Observed antifungal activity O (%),"Botrytis cinerea [2]; 250 ppm natamycin, 500 ppm procymidone or both, day 9",5%
same,Observed antifungal activity O (%),"Botrytis cinerea [2]; 500 ppm natamycin, 1000 ppm procymidone or both, day 4",36%
same,Number of moulded strawberries/total number of 10 strawberries,Botrytis cinerea [2]; [10],9 and 9/10
same,Observed antifungal activity O (%),Botrytis cinerea [2]; [10],12%
same,Number of moulded strawberries/total number of 10 strawberries,Botrytis cinerea [2]; [11],10 and 10/10
same,Observed antifungal activity O (%),Botrytis cinerea [2]; [11],7%
same,Number of moulded strawberries/total number of 10 strawberries,Botrytis cinerea [2]; [12],9 and 9/10
same,Observed antifungal activity O (%),Botrytis cinerea [2]; [12],12%
same,Number of moulded strawberries/total number of 10 strawberries,Botrytis cinerea [2]; [13],9 and 9/10
same,Observed antifungal activity O (%),Botrytis cinerea [2]; [13],4%
same,Number of moulded strawberries/total number of 10 strawberries,Botrytis cinerea [2]; [14],10 and 10/10
same,Observed antifungal activity O (%),Botrytis cinerea [2]; [14],7%
same,Observed antifungal activity O (%),"Botrytis cinerea [2]; 500 ppm natamycin, 2000 ppm procymidone or both, day 8",5%
same,Number of moulded strawberries/total number of 10 strawberries,"Botrytis cinerea [2]; 500 ppm natamycin, 2000 ppm procymidone or both, day 8-10",10 and 10/10
same,Observed antifungal activity O (%),"Botrytis cinerea [2]; 500 ppm natamycin, 2000 ppm procymidone or both, day 9",3%
same,Observed antifungal activity O (%),"Botrytis cinerea [2]; 500 ppm natamycin, 2000 ppm procymidone or both, day 10",3%
same,Number of moulded strawberries/total number of 10 strawberries,Botrytis cinerea [2]; [15],10 and 10/10
same,Observed antifungal activity O (%),Botrytis cinerea [2]; [15],0%
same,Observed antifungal activity O (%),"Botrytis cinerea [2]; 500 ppm natamycin, 2000 ppm procymidone or both, day 13",0%

# Reference: patent US20130324489A1, “NEW ANTIFUNGAL COMPOSITIONS” (DSM IP ASSETS B.V., priority 2011, published 2013)
